The results in this text go back to PMC4687129, “Molecular characterization of a cathepsin F-like protease in Trichinella spiralis” (Parasites & Vectors, 2015).

The assay has as its system T1, TsCF1 (cathepsin F-like protease).
T1 construct: gene Tsp_02382
Kind of assay: fluorescence endpoint assay, Z-Phe-Arg-AMC hydrolysis at pH […] min preincubation with inhibitor. The class given is biochemical, Trichinella spiralis.

For orientation: IC50 means the concentration that inhibits the measured activity by half. A lower IC50 goes with greater potency in that assay. `CC(C)C[C@H](NC(=O)[C@H]1O[C@@H]1C(=O)O)C(=O)NCCCCN=C(N)N` [E-64]: the IC50 amounted to 136 ± 16.9 nM.
